Laboratory results as given in article PMC5218480 (PLoS ONE, 2017).

Test system: MV-4-11 cells
Test: Gene expression microarray analysis (Affymetrix PrimeView) and GSEA
Format: cell-based, human
Parameters: RFU PODN (11730768_x_at) / Fold change /veh PODN (11730768_x_at) / RFU LINC00158 (11744669_a_at) / Fold change /veh LINC00158 (11744669_a_at) / RFU DUSP10 (11751237_a_at) / Fold change /veh DUSP10 (11751237_a_at) / RFU ID3 (11757404_x_at) / Fold change /veh ID3 (11757404_x_at) / RFU PLEKHG5 (11737974_s_at) / Fold change /veh PLEKHG5 (11737974_s_at) / RFU LRRC4B (11730491_at) / Fold change /veh LRRC4B (11730491_at) / RFU GIMAP4 (11747438_a_at) / Fold change /veh GIMAP4 (11747438_a_at) / RFU KRT8 (11758183_x_at) / Fold change /veh KRT8 (11758183_x_at) / RFU CNN1 (11734310_a_at) / Fold change /veh CNN1 (11734310_a_at) / RFU VPS37D (11726825_at) / Fold change /veh VPS37D (11726825_at) / RFU C10orf10 (11716522_x_at) / Fold change /veh C10orf10 (11716522_x_at) / RFU KIR2DL2 /// KIR2DL4 /// KIR2DL5A /// KIR2DL5B /// KIR2DS1 /// KIR2DS2 /// KIR2DS3 /// KIR2DS4 /// KIR3DL3 /// KIR3DL3 /// KIR3DS1 (11738374_at) / Fold change /veh KIR2DL2 /// KIR2DL4 /// KIR2DL5A /// KIR2DL5B /// KIR2DS1 /// KIR2DS2 /// KIR2DS3 /// KIR2DS4 /// KIR3DL3 /// KIR3DL3 /// KIR3DS1 (11738374_at) / RFU C1QL1 (11718748_at) / Fold change /veh C1QL1 (11718748_at) / RFU TMPRSS4 (11747572_a_at) / Fold change /veh TMPRSS4 (11747572_a_at) / RFU HAMP (11756126_x_at) / Fold change /veh HAMP (11756126_x_at) / RFU RNFT2 (11725882_a_at) / Fold change /veh RNFT2 (11725882_a_at) / RFU NR4A2 (11747474_a_at) / Fold change /veh NR4A2 (11747474_a_at) / RFU ABCC12 (11746883_a_at) / Fold change /veh ABCC12 (11746883_a_at) / RFU TMEM136 (11760407_x_at) / Fold change /veh TMEM136 (11760407_x_at) / RFU CLDN22 /// WWC2 (11732394_at) / Fold change /veh CLDN22 /// WWC2 (11732394_at) / RFU HLA-DPB1 (11760878_x_at) / Fold change /veh HLA-DPB1 (11760878_x_at) / RFU SPINT1 (11716480_a_at) / Fold change /veh SPINT1 (11716480_a_at) / RFU GAP43 (11754022_s_at) / Fold change /veh GAP43 (11754022_s_at) / RFU A4GNT (11735810_at) / Fold change /veh A4GNT (11735810_at) / RFU PRB3 (11715151_x_at) / Fold change /veh PRB3 (11715151_x_at) / RFU TUBB4B (11761932_at) / Fold change /veh TUBB4B (11761932_at) / RFU CAPN14 (11732068_a_at) / Fold change /veh CAPN14 (11732068_a_at) / RFU TMCC2 (11721928_a_at) / Fold change /veh TMCC2 (11721928_a_at) / RFU IRGQ (11745062_a_at) / Fold change /veh IRGQ (11745062_a_at) / RFU FAM174B (11720279_a_at) / Fold change /veh FAM174B (11720279_a_at) / RFU TMPRSS4 (11748680_a_at) / Fold change /veh TMPRSS4 (11748680_a_at) / RFU FAM212B (11763350_a_at) / Fold change /veh FAM212B (11763350_a_at) / RFU PLEKHG5 (11743358_a_at) / Fold change /veh PLEKHG5 (11743358_a_at) / RFU ZSCAN30 (11745921_a_at) / Fold change /veh ZSCAN30 (11745921_a_at) / RFU CMKLR1 (11741424_a_at) / Fold change /veh CMKLR1 (11741424_a_at) / RFU LOC101060620 /// MAPK8IP1 (11723275_at) / Fold change /veh LOC101060620 /// MAPK8IP1 (11723275_at) / RFU SPTSSB (11747773_x_at) / Fold change /veh SPTSSB (11747773_x_at) / RFU PRSS12 (11739890_at) / Fold change /veh PRSS12 (11739890_at) / RFU BIN1 (11741810_x_at) / Fold change /veh BIN1 (11741810_x_at) / RFU WNT11 (11732464_a_at) / Fold change /veh WNT11 (11732464_a_at) / RFU C10orf10 (11716521_a_at) / Fold change /veh C10orf10 (11716521_a_at) / RFU C5orf56 (11738089_at) / Fold change /veh C5orf56 (11738089_at) / RFU CYB561 (11721691_x_at) / Fold change /veh CYB561 (11721691_x_at) / RFU ANKRD19P (11752326_a_at) / Fold change /veh ANKRD19P (11752326_a_at) / RFU OR2T12 /// OR2T33 /// OR2T8 (11738714_s_at) / Fold change /veh OR2T12 /// OR2T33 /// OR2T8 (11738714_s_at) / RFU VCAN (11748164_a_at) / Fold change /veh VCAN (11748164_a_at) / RFU JSRP1 (11732532_at) / Fold change /veh JSRP1 (11732532_at) / RFU KRTAP10-11 (11738290_x_at) / Fold change /veh KRTAP10-11 (11738290_x_at) / RFU MYO3A (11730013_a_at) / Fold change /veh MYO3A (11730013_a_at) / RFU EBF3 (11725865_a_at) / Fold change /veh EBF3 (11725865_a_at) / RFU CAMK2N1 (11719241_x_at) / Fold change /veh CAMK2N1 (11719241_x_at) / RFU C5orf56 (11738088_a_at) / Fold change /veh C5orf56 (11738088_a_at) / RFU OLFML3 (11715873_a_at) / Fold change /veh OLFML3 (11715873_a_at) / RFU LOC100653217 /// NTM (11731650_a_at) / Fold change /veh LOC100653217 /// NTM (11731650_a_at) / RFU MAPK11 (11762145_a_at) / Fold change /veh MAPK11 (11762145_a_at) / RFU FIZ1 (11724087_x_at) / Fold change /veh FIZ1 (11724087_x_at) / RFU OASL (11726364_x_at) / Fold change /veh OASL (11726364_x_at) / RFU SOX15 (11748057_x_at) / Fold change /veh SOX15 (11748057_x_at) / RFU CD79A (11719716_a_at) / Fold change /veh CD79A (11719716_a_at) / RFU HIST1H1D (11736915_at) / Fold change /veh HIST1H1D (11736915_at) / RFU CASKIN2 (11723855_a_at) / Fold change /veh CASKIN2 (11723855_a_at) / RFU LOC730098 (11760151_x_at) / Fold change /veh LOC730098 (11760151_x_at) / RFU OR4N2 (11742367_at) / Fold change /veh OR4N2 (11742367_at) / RFU PRRT2 (11749266_a_at) / Fold change /veh PRRT2 (11749266_a_at) / RFU SNX32 (11753110_a_at) / Fold change /veh SNX32 (11753110_a_at) / RFU CDHR5 (11726645_a_at) / Fold change /veh CDHR5 (11726645_a_at) / RFU RCAN1 (11760418_a_at) / Fold change /veh RCAN1 (11760418_a_at) / RFU FAM167A (11723789_a_at) / Fold change /veh FAM167A (11723789_a_at) / RFU FAM26E (11764081_at) / Fold change /veh FAM26E (11764081_at) / RFU ISYNA1 (11749810_s_at) / Fold change /veh ISYNA1 (11749810_s_at) / RFU ACY1 (11761880_at) / Fold change /veh ACY1 (11761880_at) / RFU 11764098_at / Fold change /veh 11764098_at / RFU SAMD14 (11745864_x_at) / Fold change /veh SAMD14 (11745864_x_at) / RFU NPB (11741838_a_at) / Fold change /veh NPB (11741838_a_at) / RFU TMPRSS6 (11731388_a_at) / Fold change /veh TMPRSS6 (11731388_a_at) / RFU KRTAP10-2 (11738614_at) / Fold change /veh KRTAP10-2 (11738614_at) / RFU ARHGAP8 /// PRR5-ARHGAP8 (11727945_x_at) / Fold change /veh ARHGAP8 /// PRR5-ARHGAP8 (11727945_x_at) / RFU KRTAP5-7 /// NADSYN1 (11734609_at) / Fold change /veh KRTAP5-7 /// NADSYN1 (11734609_at) / RFU RASL12 (11751679_a_at) / Fold change /veh RASL12 (11751679_a_at) / RFU CDKN2B (11736163_a_at) / Fold change /veh CDKN2B (11736163_a_at) / RFU PRF1 (11729649_at) / Fold change /veh PRF1 (11729649_at) / RFU, ZNF638 /// ZNF638-IT1 / Fold change vs veh, ZNF638 /// ZNF638-IT1 / RFU, PANK3 / Fold change vs veh, PANK3 / RFU, SH3YL1 / Fold change vs veh, SH3YL1 / RFU, ZEB2 / Fold change vs veh, ZEB2 / RFU, NRIP1 / Fold change vs veh, NRIP1 / RFU, PTTG1IP / Fold change vs veh, PTTG1IP / RFU, CAPN2 / Fold change vs veh, CAPN2 / RFU, MED14 / Fold change vs veh, MED14 / RFU, SNORA58 / Fold change vs veh, SNORA58 / RFU, C1orf63 / Fold change vs veh, C1orf63 / RFU, LRRFIP1 / Fold change vs veh, LRRFIP1 / RFU, NDUFAF7 / Fold change vs veh, NDUFAF7 / RFU, SLC12A2 / Fold change vs veh, SLC12A2 / RFU, IBTK / Fold change vs veh, IBTK / RFU, ESF1 / Fold change vs veh, ESF1 / Fold change vs veh, TMEM50B / RFU, TAOK1 / Fold change vs veh, TAOK1 / RFU, ACBD3 / Fold change vs veh, ACBD3 / RFU, TMA16 / Fold change vs veh, TMA16 / RFU, RWDD3 / Fold change vs veh, RWDD3 / RFU, BCAT1 / Fold change vs veh, BCAT1 / RFU, EDEM3 / Fold change vs veh, EDEM3 / RFU, TMEM33 / Fold change vs veh, TMEM33 / RFU, WDR75 / Fold change vs veh, WDR75 / RFU, AHCTF1 / Fold change vs veh, AHCTF1 / RFU, TFRC / Fold change vs veh, TFRC / RFU, ZDHHC17 / Fold change vs veh, ZDHHC17 / RFU, NOM1 / Fold change vs veh, NOM1 / RFU, ARL8B / Fold change vs veh, ARL8B / RFU, ZBTB11 / Fold change vs veh, ZBTB11 / RFU, TAMM41 / Fold change vs veh, TAMM41 / RFU, KIAA1704 /// LOC100996395 / Fold change vs veh, KIAA1704 /// LOC100996395 / RFU, ING1 / Fold change vs veh, ING1 / RFU, TRMT61B / Fold change vs veh, TRMT61B / RFU, FUBP3 / Fold change vs veh, FUBP3 / RFU, TP53 / Fold change vs veh, TP53 / RFU, TNKS2 / Fold change vs veh, TNKS2 / RFU, ZFP14 / Fold change vs veh, ZFP14 / RFU, ACTR2 / Fold change vs veh, ACTR2 / RFU, PPP3R1 / Fold change vs veh, PPP3R1 / RFU, PIK3R1 / Fold change vs veh, PIK3R1 / RFU, HNRNPA1 / Fold change vs veh, HNRNPA1 / RFU, RNF170 / Fold change vs veh, RNF170 / RFU, ZNF28 / Fold change vs veh, ZNF28 / RFU, RNGTT / Fold change vs veh, RNGTT / RFU, OGT / Fold change vs veh, OGT / RFU, BRD1 / Fold change vs veh, BRD1 / RFU, MARS / Fold change vs veh, MARS / RFU, ZNF655 / Fold change vs veh, ZNF655 / RFU, FAHD1 / Fold change vs veh, FAHD1 / RFU, BDP1 / Fold change vs veh, BDP1 / RFU, LRRCC1 / Fold change vs veh, LRRCC1 / RFU, ARID1A / Fold change vs veh, ARID1A / RFU, ZNF146 / Fold change vs veh, ZNF146 / RFU, ZNF330 / Fold change vs veh, ZNF330 / RFU, GPN3 / Fold change vs veh, GPN3 / RFU, C9orf123 / Fold change vs veh, C9orf123 / RFU, N4BP2L2 / Fold change vs veh, N4BP2L2 / RFU, ARFIP1 / Fold change vs veh, ARFIP1 / RFU, FAM179B / Fold change vs veh, FAM179B / RFU, BCL10 / Fold change vs veh, BCL10 / RFU, UHRF1BP1L / Fold change vs veh, UHRF1BP1L / RFU, BET1 / Fold change vs veh, BET1 / RFU, CNOT2 / Fold change vs veh, CNOT2 / RFU, ZNF268 / Fold change vs veh, ZNF268 / Fold change vs veh, ZNF507 / RFU, DGCR2 / Fold change vs veh, DGCR2 / RFU, WDSUB1 / Fold change vs veh, WDSUB1 / Fold change vs veh, HSP90B1 /// MIR3652 / RFU, ADSS / Fold change vs veh, ADSS / RFU, GK / Fold change vs veh, GK / RFU, ZNF148 / Fold change vs veh, ZNF148 / RFU, TAF9 / Fold change vs veh, TAF9 / RFU, SLC1A5 / Fold change vs veh, SLC1A5 / RFU, SLMO2 / Fold change vs veh, SLMO2 / RFU, ABCC4 / Fold change vs veh, ABCC4 / RFU, LOC101060439 /// RAP1B / Fold change vs veh, LOC101060439 /// RAP1B / RFU, RFX7 / Fold change vs veh, RFX7 / RFU, GTPBP10 / Fold change vs veh, GTPBP10 / RFU, CNEP1R1 / Fold change vs veh, CNEP1R1 / RFU, BIVM-ERCC5 /// ERCC5 / Fold change vs veh, BIVM-ERCC5 /// ERCC5 / RFU, ILF3 / Fold change vs veh, ILF3 / RFU 11762660_at / Fold change /veh 11762660_at / RFU VCAN (11757783_s_at) / Fold change /veh VCAN (11757783_s_at) / RFU DDX43 (11728927_at) / Fold change /veh DDX43 (11728927_at) / RFU KRT8 (11758188_x_at) / Fold change /veh KRT8 (11758188_x_at) / RFU NKD1 (11759106_at) / Fold change /veh NKD1 (11759106_at) / RFU SRD5A1 (11742802_a_at) / Fold change /veh SRD5A1 (11742802_a_at) / RFU TPSAB1 /// TPSB2 (11721975_s_at) / Fold change /veh TPSAB1 /// TPSB2 (11721975_s_at) / RFU GSTM3 (11746129_a_at) / Fold change /veh GSTM3 (11746129_a_at) / RFU IL23R (11737362_x_at) / Fold change /veh IL23R (11737362_x_at) / RFU TMEM51 (11727254_a_at) / Fold change /veh TMEM51 (11727254_a_at) / RFU PIWIL2 (11732686_x_at) / Fold change /veh PIWIL2 (11732686_x_at) / RFU ORM1 (11744905_x_at) / Fold change /veh ORM1 (11744905_x_at) / RFU CCDC152 (11743942_at) / Fold change /veh CCDC152 (11743942_at) / RFU ECM1 (11717891_a_at) / Fold change /veh ECM1 (11717891_a_at) / RFU IL23R (11748794_a_at) / Fold change /veh IL23R (11748794_a_at) / RFU TNFAIP8L3 (11732012_x_at) / Fold change /veh TNFAIP8L3 (11732012_x_at) / RFU MBOAT4 (11741988_at) / Fold change /veh MBOAT4 (11741988_at) / RFU 11764193_at / Fold change /veh 11764193_at / RFU TMEM53 (11763286_at) / Fold change /veh TMEM53 (11763286_at) / RFU MAGEB2 (11727129_at) / Fold change /veh MAGEB2 (11727129_at) / RFU TMEM200A (11744735_a_at) / Fold change /veh TMEM200A (11744735_a_at) / RFU CCDC152 (11751479_a_at) / Fold change /veh CCDC152 (11751479_a_at) / RFU FAM211A (11726209_a_at) / Fold change /veh FAM211A (11726209_a_at) / RFU RGS16 (11746705_a_at) / Fold change /veh RGS16 (11746705_a_at) / RFU VCAN (11755009_s_at) / Fold change /veh VCAN (11755009_s_at) / RFU RHOB (11743442_s_at) / Fold change /veh RHOB (11743442_s_at) / RFU RGS16 (11720943_a_at) / Fold change /veh RGS16 (11720943_a_at) / RFU RGS16 (11720944_at) / Fold change /veh RGS16 (11720944_at) / RFU, VPS4B / Fold change vs veh, VPS4B / RFU, CREB1 / Fold change vs veh, CREB1 / RFU, DNAJC13 / Fold change vs veh, DNAJC13 / RFU, GNAQ / Fold change vs veh, GNAQ / RFU, CDK5R1 / Fold change vs veh, CDK5R1 / RFU, ZRANB3 / Fold change vs veh, ZRANB3 / RFU, CUL4A / Fold change vs veh, CUL4A / RFU, CCNY / Fold change vs veh, CCNY / RFU, UFL1 / Fold change vs veh, UFL1 / RFU, COG3 / Fold change vs veh, COG3 / RFU, DIAPH2 / Fold change vs veh, DIAPH2 / RFU, SKA2 / Fold change vs veh, SKA2 / RFU, AFF3 / Fold change vs veh, AFF3 / RFU, LMF1 / Fold change vs veh, LMF1 / RFU, IPO11 / Fold change vs veh, IPO11 / RFU, DFFB / Fold change vs veh, DFFB / RFU, FOXP1 / Fold change vs veh, FOXP1 / RFU, CARD8 / Fold change vs veh, CARD8 / RFU, STRN3 / Fold change vs veh, STRN3 / RFU, ADK / Fold change vs veh, ADK / RFU, RASSF2 / Fold change vs veh, RASSF2 / RFU, WIPF1 / Fold change vs veh, WIPF1 / RFU, LARP1B / Fold change vs veh, LARP1B / RFU, RASA1 / Fold change vs veh, RASA1 / RFU, RB1 / Fold change vs veh, RB1 / RFU, PPFIA1 / Fold change vs veh, PPFIA1 / RFU, MAT2A / Fold change vs veh, MAT2A / RFU, CCT5 / Fold change vs veh, CCT5 / RFU, WDR92 / Fold change vs veh, WDR92 / RFU, CUX1 / Fold change vs veh, CUX1 / RFU, TTC7A / Fold change vs veh, TTC7A / RFU, TMEM135 / Fold change vs veh, TMEM135 / RFU, DEPTOR / Fold change vs veh, DEPTOR / RFU, CPM / Fold change vs veh, CPM / RFU, DNAJB6 / Fold change vs veh, DNAJB6 / RFU, CACNA2D3 / Fold change vs veh, CACNA2D3 / RFU, DTX4 / Fold change vs veh, DTX4 / RFU, TFCP2 / Fold change vs veh, TFCP2 / RFU, GMCL1 /// GMCL1P1 / Fold change vs veh, GMCL1 /// GMCL1P1 / RFU, AEBP2 / Fold change vs veh, AEBP2 / RFU, SNHG1 /// SNORD22 /// SNORD25 /// SNORD26 /// SNORD27 /// SNORD28 /// SNORD29 /// SNORD31 / Fold change vs veh, SNHG1 /// SNORD22 /// SNORD25 /// SNORD26 /// SNORD27 /// SNORD28 /// SNORD29 /// SNORD31 / Fold change (Aza/veh), C12orf56 (ProbeSet 11735607_a_at) / Fold change (ACY-1035/veh), C12orf56 (ProbeSet 11735607_a_at) / Fold change (Aza/veh), FGFR1OP (ProbeSet 11751329_s_at) / Fold change (ACY-1035/veh), FGFR1OP (ProbeSet 11751329_s_at) / Fold change (Aza/veh), VPS36 (ProbeSet 11739960_a_at) / Fold change (ACY-1035/veh), VPS36 (ProbeSet 11739960_a_at) / RFU SYPL1 (11715823_x_at) / Fold change /veh SYPL1 (11715823_x_at) / RFU IGFBP7 (11715501_s_at) / Fold change /veh IGFBP7 (11715501_s_at) / RFU REEP3 (11722064_at) / Fold change /veh REEP3 (11722064_at) / RFU IGLL1 (11728026_x_at) / Fold change /veh IGLL1 (11728026_x_at): dose or concentration left out as unconfirmed
Details: MV-4-11 cells, 48 hours

Nc1ccc(-c2cccs2)cc1NC(=O)c1ccc2c(c1)cc(C1CC1)n2CCN1CCOCC1 [ACY-1035]
RFU GSTM3 (11746129_a_at): 10.76 RFU
